Source: PMC11013284, “Chemoselective Synthesis and Anti-Kinetoplastidal Properties of 2,6-Diaryl-4H-tetrahydro-thiopyran-4-one S-Oxides: Their Interplay in a Cascade of Redox Reactions from Diarylideneacetones” (Molecules, 2024)
Entries after “also recorded” stand apart in the source; their conditions may differ. Where two headings read alike, the source gives them in different places.

Assays:
[1] = test system: Trypanosoma brucei brucei trypomastigotes, suramin-sensitive strain (Squib 427); test: T. b. brucei growth/viability assay (resazurin); type: cell-based; conditions: for IC50: 3 days
Experimental: After 3 days, parasite growth was assessed fluorimetrically following the addition of resazurin. After 24 h at 37 °C, fluorescence was measured (λex = 550 nm, λem = 590 nm). The results were expressed as a percentage reduction in parasite growth/viability compared to control wells, and a 50% inhibitory concentration (IC50) was calculated.

[2] = test system: Trypanosoma cruzi (Tulahuen CL2 β-galactosidase) amastigotes in hMRC-5SV2 cells; test: T. cruzi intracellular amastigote assay (β-galactosidase/CPRG); type: cell-based
Experimental: A nifurtimox-sensitive strain (Tulahuen CL2 β-galactosidase) in human lung fibroblast hMRC-5SV2 cells was incubated for 7 days in 96-well plates with five concentrations of compound (64, 16, 4, 1, and 0.25 μM). The parasitic burden was evaluated through the activity of the enzyme β-galactosidase on a specific chlorophenol red ß-D-galactopyranoside (CPRG) substrate. Live parasites converted the yellow-orange CPRG substrate into the red chromophore chlorophenol red, yielding a dark-red solution, which could be quantitatively measured at 540 nm after 4 h of incubation at 37 °C. The results were expressed as a percentage reduction in parasite growth/viability compared to control wells, and an IC50 was calculated.

[3] = test system: L. infantum (MHOM/MA(BE)/67) amastigotes in primary peritoneal mouse macrophages; test: L. infantum intramacrophage amastigote assay (microscopic burden); type: cell-based, Leishmania infantum; conditions: 5 days, mouse macrophages as host
Experimental: L. infantum (MHOM/MA(BE)/67 strain) amastigote were incubated for 5 days in 96-well plates with five concentrations of compound (64, 16, 4, 1, and 0.25 μM). Primary peritoneal mouse macrophages were used as host cells. Parasite burdens (i.e., the number of amastigotes per macrophage) were microscopically assessed. The results were expressed as a percentage reduction in parasite burden compared to untreated control wells, and an IC50 was calculated.

[4] = in vitro; conditions: human, CC50 hMRC-5 (cytotoxicity)
Experimental: (§1) The cytotoxicity of compounds was evaluated toward human diploid embryonic lung fibroblast hMRC-5SV2 cells, derived from fetal lung tissue and first described in 1970. hMRC-5SV2 cells were cultured in 96-well plates with five concentrations of the compound (64, 16, 4, 1, and 0.25 μM). After 3 days of incubation, the cell viability was assessed fluorimetrically after the addition of resazurin, and fluorescence was measured (λex = 550 nm, λem = 590 nm). The results were expressed as a percentage reduction in cell growth/viability compared to control wells, and a 50% cytotoxic concentration (CC50) was calculated. The reference cytotoxic drugs were tamoxifen or ivermectin. Additionally, toxicity toward mouse macrophages was qualitatively observed. Three concentrations were included (64, 16, and 4 µM), and the range of toxicity was ranked from the least toxic to the most toxic compound.

[5] = test system: murine macrophages; test: Qualitative toxicity toward mouse macrophages; conditions: concentration at which toxicity was observed; 64, 16 and 4 µM tested
Experimental: as §1

[6] = Solubility observations (crystals in assay, insolubility in solvents); type: physicochemical; conditions: for presence of crystals, concentration range / presence of crystals (asterisk mark): noted in L. donovani assay, Table S5; for solubility (observation): almost all types of solvent, even at very low concentrations
[7] = test system: macrophages
[8] = test system: human diploid embryonic lung fibroblast hMRC-5SV2 cells; test: in vitro
Experimental: as §1

[9] = test system: L. donovani LV9 axenic amastigotes; test: L. donovani axenic amastigote assay (SYBR green I); type: cell-based, Leishmania donovani; conditions: for IC50: LV9, read-out: IC50 ± SD L. donovani axenic amastigotes; for IC99 ± SD LV9 axenic amastigotes / IC90: Table S6; for IC90: read-out: IC90 ± SD LV9 axenic amastigotes
Experimental: L. donovani amastigote forms were suspended to yield 10^7 cells/mL. The final compound concentrations used were 100 µM, 10 µM, 1 µM, 500 nM, and 50 nM. Duplicates were used for each concentration. Cultures were incubated at 37 °C for 72 h in the dark and under a 5% CO2 atmosphere; then, the viability of the amastigotes was assessed using the SYBR® green I (Invitrogen, France) incorporation method. Parasite growth was determined by using SYBR® Green I, a dye with marked fluorescence enhancement upon contact with parasite DNA. Parasites were lysed following Direct PCReCell Genotyping without DNA isolation protocol (Euromedex, Souffelweyersheim, France). A total of […] of SYBR Green I was added to each well, and the contents were mixed. Fluorescence was measured with Mastercylcer® ep realplex (Eppendorf, Montesson, France). The fluorescence obtained was compared to those from the range obtained with different parasite densities.

[10] = test system: WT LV9 L. donovani intramacrophage amastigotes; test: L. donovani intramacrophage amastigote assay; type: cell-based, Leishmania donovani; conditions: for IC99 ± SD LV9 intramacrophage amastigotes / IC90: Table S6; for IC90: read-out: IC90 ± SD LV9 intramacrophage amastigotes; for IC50: WT LV9, ± SD in Tables S5/S6, read-out: IC50 L. donovani intramacrophage amastigotes
[11] = Trypanosoma cruzi, TULAHUEN, 168 h, intracellular amastigotes, 7 days, read-out: IC50 T. cruzi intramacrophage amastigotes (converted)
[12] = Leishmania infantum, Macrophage, 120 h
[13] = intracellular amastigotes, 7 days, read-out: IC50 T. cruzi intramacrophage amastigotes (converted)
[14] = bracketed value after the intramacrophage IC50 (Table S5), Table S6

Row | SMILES | CC50 at 3 days [4] | presence of crystals, concentration range [6] | IC50 [1] | IC50 [2, 13] | IC50 [3] | CC50 [8] | IC50 [10] | observed macrophage death / lysis observed at [7, 14] | presence of crystals (asterisk mark) [6] | other results
1 | O=C(/C=C/c1c(Cl)cccc1Cl)/C=C/c1c(Cl)cccc1Cl [1h] | > 64 µM | 0.8 to 200 µM |  |  |  |  |  |  |  | IC50 ([1]; Trypanosoma brucei, 72 h): > 64 µM; IC50 [2, 11]: 39.5 µM; IC50 [3, 12]: 32.5 µM; Toxicity (T) observed toward murine macrophages [5]: T1 (T1 = 64); observed macrophage death / lysis observed at [7]: > 6.2 µM
2 | CN(C)c1ccc([C@H]2CC(=O)C[C@H](c3ccc(N(C)C)cc3)S2)cc1 (racemic) [2u] |  |  | 1.5 µM | 2.5 µM | 43.1 µM | 5 µM | 4.5 ± 10 µM | 100 µM |  | IC50 [9]: 57.5 ± 10.2 µM; IC99 ± SD LV9 axenic amastigotes [9]: 91.1 ± 16.2 µM; IC90 [9]: 71.7 ± 12.7 µM; IC99 ± SD LV9 intramacrophage amastigotes [10]: 7.1 ± 15.9 µM; IC90 [10]: 5.6 ± 12.5 µM
3 | Cc1ccccc1C1CC(=O)CC(c2ccccc2C)S1 (racemic) [2b] |  |  | > 64 µM | ≥ 64 µM | 43.1 µM | > 64 µM | 14.5 ± 1.9 µM | > 50 µM | ** (presence of crystals at > 100 µM) | 
4 | Cc1ccc(/C=C/C(=O)/C=C/c2ccc(C)cc2)cc1 [1c] | 32.5 µM | 25 to 100 µM |  |  |  |  |  |  |  | IC50 ([1]; Trypanosoma brucei, 72 h): 9.3 µM; IC50 [2, 11]: 41.9 µM; IC50 [3, 12]: > 64 µM
5 | Cc1ccc(/C=C/C(=O)/C=C/c2ccccc2)cc1 [1’a] |  | 3.1 to 200 µM | 0.5 µM | 2.6 µM | 32.5 µM | 47 µM |  |  |  | 
6 | COc1ccc(C2CC(=O)CC(c3ccc(OC)cc3)S2(=O)=O)cc1 (racemic) [4d, (±)-trans-2,6-Di-(p-anisyl)-4H-tetrahydrothiopyran-4-one 1,1-dioxide] | ≥ 64 µM |  | 43.3 µM |  | ≥ 64 µM |  |  |  |  | anti-trypanosomal activity (IC50) ([1]; Trypanosoma (T. cruzi and T. b. brucei)): almost inactive; also recorded: completely inactive; IC50 [2, 11]: ≥ 64 µM; IC50 ([10]; Leishmania donovani): > 100 µM; solubility (observation) [6]: Solubility issues; also recorded: insolubility
7 | O=C(/C=C/c1ccccc1)/C=C/c1ccccc1 [1a] | 52.9 µM | 12.5 to 200 µM |  |  |  |  |  |  |  | IC50 ([1]; Trypanosoma brucei, 72 h): 0.4 µM; IC50 ([2]; Trypanosoma cruzi, TULAHUEN, 168 h, read-out: IC50 T. cruzi intramacrophage amastigotes): 16 µM; IC50 [3, 12]: 20.3 µM; IC50 ([10]; Leishmania donovani): > 100 µM; observed macrophage death / lysis observed at [7]: 200 µM
8 | COc1ccc(/C=C/C(=O)/C=C/c2ccc3ccccc3c2)cc1 [1’j] |  |  |  |  |  |  | 58.2 ± 8 µM | > 150 µM | ** (presence of crystals at > 100 µM) | 
9 | COc1ccc(/C=C/C(=O)/C=C/c2ccccc2)cc1 [1’h] |  |  |  |  |  |  | 17.4 ± 1.9 µM | > 37.5 µM | ** (presence of crystals at > 100 µM) | 
10 | O=C1CC(c2c(Cl)cccc2Cl)SC(c2c(Cl)cccc2Cl)C1 (racemic) [2h] |  | 12.5 to 200 µM | > 64 µM | > 64 µM | 2 µM | > 64 µM |  |  |  | 
11 | O=C(/C=C/c1ccco1)/C=C/c1ccco1 [1z] | > 64 µM |  |  |  |  |  |  |  |  | IC50 ([1]; Trypanosoma brucei, 72 h): 7.6 µM; IC50 [2, 11]: 39.9 µM; IC50 [3, 12]: 32.5 µM; Toxicity (T) observed toward murine macrophages [5]: T1 (T1 = 64); IC50 ([10]; Leishmania donovani): 14 ± 2.6 µM; observed macrophage death / lysis observed at [7]: > 50 µM
12 | CN(C)c1ccc(/C=C/C(=O)/C=C/c2ccc(N(C)C)cc2)cc1 [1u] | 62.3 µM |  |  |  |  |  |  |  |  | IC50 ([1]; Trypanosoma brucei, 72 h): 0.8 µM; IC50 [2, 11]: 36.9 µM; IC50 [3, 12]: > 64 µM; IC50 ([9]; Leishmania donovani): 8.7 ± 0.6 µM; IC90 ([9]; Leishmania donovani): 64.2 ± 0.7 µM; IC99 ± SD LV9 axenic amastigotes [9]: 567.3 ± 0.9 µM; IC50 ([10]; Leishmania donovani): 6.3 ± 0.8 µM; IC90 ([10]; Leishmania donovani): 7.8 ± 1 µM; IC99 ± SD LV9 intramacrophage amastigotes [10]: 9.9 ± 1.3 µM; observed macrophage death / lysis observed at [7]: 200 µM
13 | Cc1ccc(C2CC(=O)CC(c3ccc(C)cc3)S2)cc1 (racemic) [2c] |  |  | 0.8 µM | 3.7 µM | > 64 µM | 24.2 µM | 13.5 ± 2.8 µM | 200 µM | ** (presence of crystals at > 100 µM) | 
14 | O=C1CC(c2ccccc2)SC(c2ccccc2)C1 (racemic) [2a] |  | 6.25 to 200 µM |  |  |  |  | > 100 µM | 200 µM |  | 
15 | O=C1CC(c2ccc(Cl)cc2)SC(c2ccc(Cl)cc2)C1 (racemic) [2f] |  |  | 27.4 µM | > 64 µM | 33.2 µM | > 64 µM | 16.1 ± 1.4 µM | > 75 µM | * (presence of crystals at > 50 µM) | 
16 | COc1ccc(C2CC(=O)CC(c3ccc(OC)cc3)S2(=O)=O)cc1 (stereo not drawn) [4′d, cis-2,6-Di-(p-anisyl)-4H-tetrahydrothiopyran-4-one 1,1-dioxide] |  |  | 2.1 µM | 34.4 µM | 20.3 µM |  |  |  |  | CC50 ([8]; human, 3 days): ≥ 64 µM; Toxicity (T) observed toward murine macrophages [5]: T1 (T1 = 64); solubility (observation) [6]: insolubility; solubility (observation) ([6]; listed as 4’d): Solubility issues
17 | CN(C)c1ccc(/C=C/C(=O)/C=C/c2nccs2)cc1 [1’s] |  |  | 0.4 µM | 11 µM | 38 µM | > 64 µM | 11.5 ± 0.6 µM | > 37.5 µM | * (presence of crystals at > 50 µM) | 
